# The source made the active and inactive calls. The rule behind the calls is not given here.
# What was measured:
# U-937 [1] = experiment: Induction of apoptosis in human U937 cells assessed as necrotic cells at 10 uM after 48 hrs by muse Annexin V/dead cell reagent staining-based flow cytometric analysis (reference value: 0.06%); format: functional
# U-937 [2] = experiment: Induction of apoptosis in human U937 cells assessed as late apoptotic cells at 10 uM after 48 hrs by muse Annexin V/dead cell reagent staining-based flow cytometric analysis (reference value: 1%); format: functional
# JeKo-1 [3] = experiment: Induction of apoptosis in human JeKo1 cells at 10 uM after 48 hrs by muse Annexin V/dead cell reagent staining-based flow cytometric analysis (reference value: 5.21%); format: functional
# U-937 [4] = experiment: Induction of apoptosis in human U937 cells assessed as necrotic cells at 3 uM after 48 hrs by muse Annexin V/dead cell reagent staining-based flow cytometric analysis (reference value: 0.06%); format: functional
# Raji [5] = experiment: Induction of apoptosis in human Raji cells at 10 uM after 48 hrs by muse Annexin V/dead cell reagent staining-based flow cytometric analysis (reference value: 9.58%); format: functional
# U-937 [6] = experiment: Induction of apoptosis in human U937 cells assessed as viable cells at 10 uM after 48 hrs by muse Annexin V/dead cell reagent staining-based flow cytometric analysis (reference value: 97.07%); format: functional; conditions: U-937, 48 h, read-out: Activity
# U-937 [7] = experiment: Induction of apoptosis in human U937 cells assessed as late apoptotic cells at 3 uM after 48 hrs by muse Annexin V/dead cell reagent staining-based flow cytometric analysis (reference value: 1%); format: functional
# U-937 [8] = experiment: Induction of apoptosis in human U937 cells assessed as increase in caspase-3/7 activity at 3 uM after 6 hrs; format: functional, cell-based
# U-937 [9] = experiment: Cytotoxicity activity against human U937 cells assessed as cell viability at 1 uM after 48 hrs by CCK-8 assay; format: functional; conditions: U-937, 48 h, read-out: Activity
# U-937 [10] = experiment: Induction of apoptosis in human U937 cells assessed as viable cells at 3 uM after 48 hrs by muse Annexin V/dead cell reagent staining-based flow cytometric analysis (reference value: 97.07%); format: functional; conditions: U-937, 48 h, read-out: Activity
# U-937 [11] = experiment: Induction of apoptosis in human U937 cells at 10 uM after 48 hrs by muse Annexin V/dead cell reagent staining-based flow cytometric analysis (reference value: 2.95%); format: functional
# U-937 [12] = experiment: Induction of apoptosis in human U937 cells assessed as early apoptotic cells at 3 uM after 48 hrs by muse Annexin V/dead cell reagent staining-based flow cytometric analysis (reference value: 1.87%); format: functional
# JeKo-1 [13] = experiment: Cytotoxicity activity against human JeKo1 cells assessed as reduction in cell viability after 48 hrs by CCK-8 assay; format: functional, cell-based; conditions: JeKo-1, 48 h
# U-937 [14] = experiment: Cytotoxicity activity against human U937 cells assessed as reduction in cell viability after 48 hrs by CCK-8 assay; format: functional, cell-based; conditions: U-937, 48 h
# Raji [15] = experiment: Cytotoxicity against human Raji cells assessed as reduction in cell viability after 48 hrs by CCK-8 assay; format: functional, cell-based
# U-937 [16] = experiment: Induction of apoptosis in human U937 cells assessed as early apoptotic cells at 10 uM after 48 hrs by muse Annexin V/dead cell reagent staining-based flow cytometric analysis (reference value: 1.87%); format: functional
# U-937 [17] = experiment: Cytotoxicity activity against human U937 cells assessed as reduction in cell viability at 1 uM after 48 hrs by CCK-8 assay; format: functional, cell-based
structure (smiles),measurement,setting,value
COc1cc(/C=C/C(=O)c2cc3cccn3c(C(=O)c3ccccc3)c2C)cc(OC)c1,Activity,U-937 [1],0%
same,Activity,U-937 [2],88.41%
same,Activity,JeKo-1 [3],46.27%
same,Activity,U-937 [4],0.62%
same,Activity,Raji [5],33.78%
same,viability at 10 µM,U-937 [6],3.36%
same,Activity,U-937 [7],45.57%
same,Activity,U-937 [8],Active
same,viability at 1 µM,U-937 [9],< 80%
same,viability at 3 µM,U-937 [10],14.2%
same,Activity,U-937 [11],51.26%
same,Activity,U-937 [12],39.59%
same,IC50,JeKo-1 [13],1300 nM
same,IC50,U-937 [14],1120 nM
same,IC50,Raji [15],1990 nM
same,Activity,U-937 [16],8.22%
Cc1c(C(=O)/C=C/c2ccc(Br)cc2)cc2cccn2c1C(=O)c1ccccc1,Activity,U-937 [1],0.59%
same,Activity,U-937 [2],76.56%
same,Activity,U-937 [4],0.77%
same,viability at 10 µM,U-937 [6],8.31%
same,Activity,U-937 [7],42.16%
same,Activity,U-937 [8],Active
same,viability at 1 µM,U-937 [9],< 80%
same,viability at 3 µM,U-937 [10],25.7%
same,Activity,U-937 [12],31.36%
same,IC50,U-937 [14],1380 nM
same,Activity,U-937 [16],14.54%
COc1ccc(/C=C/C(=O)c2cc3cccn3c(C(=O)c3ccccc3)c2C)cc1,viability at 1 µM,U-937 [9],> 80%
COc1cccc(/C=C/C(=O)c2cc3cccn3c(C(=O)c3ccccc3)c2C)c1,viability at 1 µM,U-937 [9],> 80%
Cc1c(C(=O)/C=C/c2ccc3ccccc3c2)cc2cccn2c1C(=O)c1ccccc1,viability at 1 µM,U-937 [9],> 80%
Cc1c(C(=O)/C=C/c2ccncc2)cc2cccn2c1C(=O)c1ccccc1,Activity,U-937 [1],0%
same,Activity,U-937 [2],83.05%
same,Activity,U-937 [4],0.93%
same,viability at 10 µM,U-937 [6],10.7%
same,Activity,U-937 [7],47.68%
same,Activity,U-937 [8],Active
same,viability at 1 µM,U-937 [9],< 80%
same,viability at 3 µM,U-937 [10],21.4%
same,Activity,U-937 [12],30.03%
same,IC50,U-937 [14],1370 nM
same,Activity,U-937 [16],6.21%
COc1cc(/C=C/C(=O)c2cc3cccn3c(C(=O)c3ccco3)c2C)cc(OC)c1,IC50,U-937 [14],7530 nM
Cc1c(C(=O)/C=C/c2ccc([N+](=O)[O-])cc2)cc2cccn2c1C(=O)c1ccccc1,Activity,U-937 [1],1.31%
same,Activity,U-937 [2],68.63%
same,Activity,U-937 [4],1.57%
same,viability at 10 µM,U-937 [6],13.7%
same,Activity,U-937 [7],47.12%
same,Activity,U-937 [8],Active
same,viability at 1 µM,U-937 [9],< 80%
same,viability at 3 µM,U-937 [10],26.4%
same,Activity,U-937 [12],24.87%
same,IC50,U-937 [14],1380 nM
same,Activity,U-937 [16],16.34%
COc1ccc(C(=O)c2c(C)c(C(=O)/C=C/c3cc(OC)cc(OC)c3)cc3cccn23)cc1,IC50,U-937 [14],6560 nM
Cc1c(C(=O)/C=C/c2ccc(Br)s2)cc2cccn2c1C(=O)c1ccccc1,viability at 1 µM,U-937 [9],> 80%
COc1cc(/C=C/C(=O)c2cc3cccn3c(C(=O)c3ccccc3)c2C)cc(OC)c1OC,IC50,U-937 [14],5950 nM
COc1ccccc1/C=C/C(=O)c1cc2cccn2c(C(=O)c2ccccc2)c1C,viability at 1 µM,U-937 [9],> 80%
COc1cc(/C=C2\CCc3c(cc4cccn4c3C(=O)c3ccccc3)C2=O)cc(OC)c1,IC50,U-937 [14],9460 nM
Cc1c(C(=O)/C=C/c2cccc(Cl)c2)cc2cccn2c1C(=O)c1ccccc1,Activity,U-937 [1],0.24%
same,Activity,U-937 [2],85.99%
same,Activity,U-937 [4],0.55%
same,Activity,U-937 [17],Active
same,viability at 10 µM,U-937 [6],7.84%
same,Activity,U-937 [7],54.29%
same,Activity,U-937 [8],Active
same,viability at 1 µM,U-937 [9],< 80%
same,viability at 3 µM,U-937 [10],15.8%
same,Activity,U-937 [12],29.36%
same,IC50,U-937 [14],1280 nM
same,Activity,U-937 [16],5.94%
COc1cccc2c1C(=O)c1c(O)c3c(c(O)c1C2=O)C[C@@](O)(C(=O)CO)C[C@@H]3O[C@H]1C[C@H](N)[C@H](O)[C@H](C)O1 [DOXORUBICIN],Activity,JeKo-1 [3],87.92%
same,Activity,Raji [5],95.35%
same,Activity,U-937 [11],74.66%
same,IC50,JeKo-1 [13],180 nM
same,IC50,U-937 [14],280 nM
same,IC50,Raji [15],170 nM
Cc1c(C(=O)/C=C/c2ccc(F)cc2)cc2cccn2c1C(=O)c1ccccc1,Activity,U-937 [17],Active
same,viability at 1 µM,U-937 [9],> 80%
COc1ccc(/C=C/C(=O)c2cc3cccn3c(C(=O)c3ccccc3)c2C)cc1OC,viability at 1 µM,U-937 [9],> 80%
Cc1c(C(=O)/C=C/c2cccc(F)c2)cc2cccn2c1C(=O)c1ccccc1,Activity,U-937 [17],Active
same,viability at 1 µM,U-937 [9],> 80%
Cc1c(C(=O)/C=C/c2ccccc2)cc2cccn2c1C(=O)c1ccccc1,viability at 1 µM,U-937 [9],> 80%
Cc1c(C(=O)/C=C/c2ccc(Cl)cc2)cc2cccn2c1C(=O)c1ccccc1,Activity,U-937 [17],Active
same,viability at 1 µM,U-937 [9],> 80%
Cc1c(C(=O)/C=C/c2ccc(Br)o2)cc2cccn2c1C(=O)c1ccccc1,viability at 1 µM,U-937 [9],> 80%
Cc1c(C(=O)/C=C/c2ccc3c(c2)OCO3)cc2cccn2c1C(=O)c1ccccc1,viability at 1 µM,U-937 [9],> 80%
Cc1ccc(/C=C/C(=O)c2cc3cccn3c(C(=O)c3ccccc3)c2C)cc1,viability at 1 µM,U-937 [9],> 80%

# Reference: ChEMBL document CHEMBL4251620, “Biological evaluation of indolizine-chalcone hybrids as new anticancer agents” (Eur J Med Chem, 2018)
